pIC50: −log10 of the molar value.
system: Hedgehog pathway activation (GLi-luciferase reporter) in Shh Light II reporter cells; experiment: Hedgehog pathway activation on Shh Light II reporter cells measured by luciferase activity; assay type: cell-based; conditions: Mus musculus, Shh Light II, hShh activation, read-out: Shh (IC50, inhibition of Hedgehog pathway activation)
Protocol: Hedgehog conditioned media was obtained by transfecting 293H cells with the full length gene encoding human Sonic Hedgehog (hShh) inserted into the pCMV6 expression vector, which contains a neomycin selectable marker and expresses the protein of interest with a C-terminal FLAG affinity tag. After selection in G418 containing media, conditioned media from Hedgehog expressing clones were tested for the ability to activate the hedgehog-responsive GLi-luciferase reporter in the Shh Light II cell line obtained by license from John Hopkins University (Taipale J, et al. Effects of oncogenic mutations in Smoothened and Patched can be reversed by cyclopamine. Nature 406: 1005-1009, 2000).
A test compound library was screened against hShh and 500 nM SAG (a direct agonist of the Smoothened receptor) activated 10T1/2/Smo#3 cells and Shh Light II reporter cells for the ability to block Hedgehog pathway activation. Concurrently, cell viability was measured by utilizing Celltiter-Blue® (Promega, Madison Wis.) viability assay. Active compounds were defined as those that inhibited Hedgehog signaling by greater than 50% with no concurrent loss in cell viability.
Their inhibitory activity against Hedgehog pathway activation on 10T1/2/Smo#3 cells as measured by ALP activity and Shh Light II reporter cells as measured by luciferase activity is shown in Table 1 below. In Table 1, +++ stands for an IC50 value that is less than 0.3 μM, ++ between 0.3 and 3 μM, + between 3 and 30 μM.
Additional data for compounds of the invention is shown below in Table 2. Their inhibitory activities against Hedgehog pathway activation are shown as IC50 values in μM on 10T1/2/Smo#3 cells as measured by ALP activity, or on Shh Light II reporter cells as measured by luciferase activity (hShh activation).

Row | pIC50 | SMILES
1 | 6.06 | Cc1ccc(-c2cn3nc(-c4ccc(O)nc4)ccc3n2)cc1NC(=O)C(C)(C)C [Example 404, N-(5-(6-(6-hydroxypyridin-3-yl)imidazo[1,2-b]pyridazin-2-yl)-2-methylphenyl)pivalamide]
2 | 5.70 | Cc1ccc(-c2cn3nc(-c4cncc(O)c4)ccc3n2)cc1NC(=O)C(C)(C)C [Example 405, N-(5-(6-(5-hydroxypyridin-3-yl)imidazo[1,2-b]pyridazin-2-yl)-2-methylphenyl)pivalamide]
3 | 5.69 | Cc1ccc(-c2cn3nc(-c4cccnc4O)ccc3n2)cc1NC(=O)C(C)(C)C [Example 406, N-(5-(6-(2-hydroxypyridin-3-yl)imidazo[1,2-b]pyridazin-2-yl)-2-methylphenyl)pivalamide]
4 | 6.45 | Cc1ccc(-c2cn3nc(-c4cncc(F)c4)ccc3n2)cc1NC(=O)C(C)(C)C [Example 407, N-(5-(6-(5-fluoropyridin-3-yl)imidazo[1,2-b]pyridazin-2-yl)-2-methylphenyl)pivalamide]
5 | 6.47 | Cc1ccc(-c2cn3nc(-c4ccc(Cl)nc4)ccc3n2)cc1NC(=O)C(C)(C)C [Example 408, N-(5-(6-(6-chloropyridin-3-yl)imidazo[1,2-b]pyridazin-2-yl)-2-methylphenyl)pivalamide]
6 | 6.63 | Cc1ccc(-c2cn3nc(-c4ccc(O)cc4C(F)(F)F)ccc3n2)cc1NC(=O)C(C)(C)C [Example 409, N-(5-(6-(4-hydroxy-2-(trifluoromethyl)phenyl)imidazo[1,2-b]pyridazin-2-yl)-2-methylphenyl)pivalamide]
7 | 6.02 | CCOC(=O)CCCCCNC1CCN(c2ccc3nc(-c4ccc(C)c(NC(=O)C(C)(C)C)c4)cn3n2)C1 (stereo not shown) [Example 414, ethyl 6-(1-(2-(4-methyl-3-pivalamidophenyl)imidazo[1,2-b]pyridazin-6-yl)pyrrolidin-3-ylamino)hexanoate]
8 | 5.76 | CCOC(=O)CCCCCCNC1CCN(c2ccc3nc(-c4ccc(C)c(NC(=O)C(C)(C)C)c4)cn3n2)C1 (stereo not shown) [Example 415, ethyl 7-(1-(2-(4-methyl-3-pivalamidophenyl)imidazo[1,2-b]pyridazin-6-yl)pyrrolidin-3-ylamino)heptanoate]
9 | 6.60 | Cc1ccc(-c2cn3nc(-c4ccc(OCCCCCC(=O)NO)cc4C(F)(F)F)ccc3n2)cc1NC(=O)C(C)(C)C [Example 416, N-hydroxy-6-(4-(2-(4-methyl-3-pivalamidophenyl)imidazo[1,2-b]pyridazin-6-yl)-3-(trifluoromethyl)phenoxy)hexanamide]
10 | 5.86 | Cc1ccc(-c2cn3nc(N4CCC(NCCCCCC(=O)NO)C4)ccc3n2)cc1NC(=O)C(C)(C)C (stereo not shown) [Example 418, N-hydroxy-6-(1-(2-(4-methyl-3-pivalamidophenyl)imidazo[1,2-b]pyridazin-6-yl)pyrrolidin-3-ylamino)hexanamide]
11 | 6.01 | Cc1ccc(-c2cn3nc(N4CCC(NCCCCCCC(=O)NO)C4)ccc3n2)cc1NC(=O)C(C)(C)C (stereo not shown) [Example 419, N-hydroxy-7-(1-(2-(4-methyl-3-pivalamidophenyl)imidazo[1,2-b]pyridazin-6-yl)pyrrolidin-3-ylamino)heptanamide]
12 | 5.86 | COC(=O)CCCCCCC(=O)Nc1cc(-c2cn3nc(-c4cccnc4C(F)(F)F)ccc3n2)ccc1C [Example 420, methyl 8-(2-methyl-5-(6-(2-(trifluoromethyl)pyridin-3-yl)imidazo[1,2-b]pyridazin-2-yl)phenylamino)-8-oxooctanoate]
13 | 5.48 | COC(=O)CCCCC(=O)Nc1cc(-c2cn3nc(-c4cccnc4C(F)(F)F)ccc3n2)ccc1C [Example 421, methyl 6-(2-methyl-5-(6-(2-(trifluoromethyl)pyridin-3-yl)imidazo[1,2-b]pyridazin-2-yl)phenylamino)-6-oxohexanoate]
14 | 6.37 | CCOC(=O)CCCOc1cc(-c2ccc3nc(-c4ccc(C)c(NC(=O)C(C)(C)C)c4)cn3n2)cc(C(F)(F)F)n1 [Example 431, ethyl 4-(4-(2-(4-methyl-3-pivalamidophenyl)imidazo[1,2-b]pyridazin-6-yl)-6-(trifluoromethyl)pyridin-2-yloxy)butanoate]
15 | 6.45 | CCOC(=O)CCCOc1ccc(C(F)(F)F)c(-c2ccc3nc(-c4ccc(C)c(NC(=O)C(C)(C)C)c4)cn3n2)c1 [Example 434, ethyl 4-(3-(2-(4-methyl-3-pivalamidophenyl)imidazo[1,2-b]pyridazin-6-yl)-4-(trifluoromethyl)phenoxy)butanoate]
16 | 5.89 | CCOC(=O)CC(=O)Nc1cc(-c2cn3nc(-c4cccnc4C(F)(F)F)ccc3n2)ccc1C [Example 435, ethyl 3-(2-methyl-5-(6-(2-(trifluoromethyl)pyridin-3-yl)imidazo[1,2-b]pyridazin-2-yl)phenylamino)-3-oxopropanoate]
17 | 6.01 | CCOC(=O)CCC(=O)Nc1cc(-c2cn3nc(-c4cccnc4C(F)(F)F)ccc3n2)ccc1C [Example 436, ethyl 4-(2-methyl-5-(6-(2-(trifluoromethyl)pyridin-3-yl)imidazo[1,2-b]pyridazin-2-yl)phenylamino)-4-oxobutanoate]
18 | 5.39 | Cc1ccc(-c2cn3nc(-c4cccnc4C(F)(F)F)ccc3n2)cc1NC(=O)CCCCC(=O)NO [Example 440, N^1-hydroxy-N^6-(2-methyl-5-(6-(2-(trifluoromethyl)pyridin-3-yl)imidazo[1,2-b]pyridazin-2-yl)phenyl)adipamide]
19 | 5.59 | Cc1ccc(-c2cn3nc(-c4cccnc4C(F)(F)F)ccc3n2)cc1-c1cccc(C(F)(F)F)n1 [Example 441, 2-(4-methyl-3-(6-(trifluoromethyl)pyridin-2-yl)phenyl)-6-(2-(trifluoromethyl)pyridin-3-yl)imidazo[1,2-b]pyridazine]
20 | 5.97 | Cc1ccc(-c2cn3nc(C4=CCCC4)ccc3n2)cc1NC(=O)C(C)(C)C [Example 442, N-(5-(6-cyclopentenylimidazo[1,2-b]pyridazin-2-yl)-2-methylphenyl)pivalamide]
21 | 5.73 | Cc1ccc(-c2cn3nc(C4=CCCCC4)ccc3n2)cc1NC(=O)C(C)(C)C [Example 443, N-(5-(6-cyclohexenylimidazo[1,2-b]pyridazin-2-yl)-2-methylphenyl)pivalamide]
22 | 5.86 | COC(=O)c1csc(-c2ccc3nc(-c4ccc(C)c(NC(=O)C(C)(C)C)c4)cn3n2)n1 [Example 446, methyl 2-(2-(4-methyl-3-pivalamidophenyl)imidazo[1,2-b]pyridazin-6-yl)thiazole-4-carboxylate]
23 | 6.53 | CC(=O)Nc1ncc(-c2ccc3nc(-c4ccc(C)c(NC(=O)C(C)(C)C)c4)cn3n2)s1 [Example 447, N-(5-(6-(2-acetamidothiazol-5-yl)imidazo[1,2-b]pyridazin-2-yl)-2-methylphenyl)pivalamide]
24 | 6.41 | CNC(=O)c1ccccc1-c1ccc2nc(-c3ccc(C)c(NC(=O)C(C)(C)C)c3)cn2n1 [Example 452, N-methyl-2-(2-(4-methyl-3-pivalamidophenyl)imidazo[1,2-b]pyridazin-6-yl)benzamide]
25 | 5.69 | Cc1ccc(-c2cn3nc(-c4ccc(OCCCCC(=O)NO)cc4C(F)(F)F)ccc3n2)cc1NC(=O)C(C)(C)C [Example 454, N-hydroxy-5-(4-(2-(4-methyl-3-pivalamidophenyl)imidazo[1,2-b]pyridazin-6-yl)-3-(trifluoromethyl)phenoxy)pentanamide]
26 | 5.46 | Cc1ccc(-c2cn3nc(-c4ccc(OCC(=O)NO)cc4C(F)(F)F)ccc3n2)cc1NC(=O)C(C)(C)C [Example 455, N-(5-(6-(4-(2-(hydroxyamino)-2-oxoethoxy)-2-(trifluoromethyl)phenyl)imidazo[1,2-b]pyridazin-2-yl)-2-methylphenyl)pivalamide]
27 | 6.44 | Cc1ccc(-c2cn3nc(-c4cc(C(F)(F)F)ccn4)ccc3n2)cc1NC(=O)C(C)(C)C [Example 456, N-(2-methyl-5-(6-(4-(trifluoromethyl)pyridin-2-yl)imidazo[1,2-b]pyridazin-2-yl)phenyl)pivalamide]
28 | 6.48 | Cc1ccc(-c2cn3nc(-c4ccc(C(F)(F)F)cn4)ccc3n2)cc1NC(=O)C(C)(C)C [Example 457, N-(2-methyl-5-(6-(5-(trifluoromethyl)pyridin-2-yl)imidazo[1,2-b]pyridazin-2-yl)phenyl)pivalamide]
29 | 6.38 | Cc1ccc(-c2cn3nc(-c4cccc(C(F)(F)F)n4)ccc3n2)cc1NC(=O)C(C)(C)C [Example 458, N-(2-methyl-5-(6-(6-(trifluoromethyl)pyridin-2-yl)imidazo[1,2-b]pyridazin-2-yl)phenyl)pivalamide]
30 | 5.03 | Cc1ccc(-c2cn3nc(-c4ccc(C(=O)O)cn4)ccc3n2)cc1NC(=O)C(C)(C)C [Example 459, 6-(2-(4-methyl-3-pivalamidophenyl)imidazo[1,2-b]pyridazin-6-yl)nicotinic acid]

same assay, conditions: hShh activation, read-out: Shh (IC50, inhibition of Hedgehog pathway activation)

Row | pIC50 | SMILES
31 | 5.27 | Cc1ccc(-c2cn3nc(-c4cccnc4C(F)(F)F)ccc3n2)cc1NC(=O)CCCCCCC(=O)O [Example 430, 8-(2-methyl-5-(6-(2-(trifluoromethyl)pyridin-3-yl)imidazo[1,2-b]pyridazin-2-yl)phenylamino)-8-oxooctanoic acid]

— patent US8871767B2, “2-arylimidazo[1,2-B]pyridazine, 2-phenylimidazo[1,2-A]pyridine, and 2-phenylimidazo[1,2-A]pyrazine derivatives” (Hengrui (USA) Ltd., priority 2010, dated 2014)
